Among the test systems are A498 renal; K-562 leukemia; OVCAR-5 ovarian; RPMI-8226 leukemia; RXF 393 renal; SK-MEL-5 melanoma; SNB-75 CNS; SR leukemia; SW-620 colon; SF-295 CNS.
Holding throughout (assay): inhibition of tumour cell growth, NCI panel, 48 h

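Where inhibition never reached the appropriate level, the endpoint shown equals the highest concentration tested. Otherwise, values were interpolated linearly from a five-concentration, 48-hour dose response in 96-well plates. Here, GI50 denotes the concentration required for 50% inhibition of growth. TGI marks complete inhibition of growth.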

9 molecules from PubChem BioAssay (NCI) can be followed below.

Take `COc1cc2c(cc1OCCCN1CCN(CCCOc3cc4c(cc3OC)C(=O)N3CC(F)(F)C[C@H]3C=N4)CC1)N=C[C@@H]1CC(F)(F)CN1C2=O`: the GI50 with A498 renal is 2.43 µM; in the assay with K-562 leukemia, 1.74 µM; with OVCAR-5 ovarian, 3.83 µM; with RPMI-8226 leukemia, 2.2 µM; in the assay on RXF 393 renal, 2.14 µM; with SK-MEL-5 melanoma it was 1.86 µM. For the same molecule, the figures for the GI50 in the assay on SNB-75 CNS, in the assay with SR leukemia and with SW-620 colon were 5.52 µM, 0.882 µM and 2.61 µM, respectively. Moreover, the TGI with A498 renal is 5.95 µM; in the assay with K-562 leukemia, more than 100 µM; in the assay on OVCAR-5 ovarian, 11.4 µM; in the assay with RPMI-8226 leukemia it was 7.73 µM; in the assay on RXF 393 renal, 4.52 µM; in the assay on SK-MEL-5 melanoma, 4.16 µM. Also, the results for the TGI in the assay with SNB-75 CNS, with SR leukemia and in the assay on SW-620 colon were 21.1 µM, 11.4 µM and 12.5 µM, respectively.

Consider `CCOc1ccc(OCC(=O)O)c2c1CCCC2=O`, for which the TGI with A498 renal, in the assay on OVCAR-5 ovarian, with RPMI-8226 leukemia, in the assay on RXF 393 renal, in the assay with SF-295 CNS and with SK-MEL-5 melanoma was more than 100 µM each time. The TGI in the assay with SNB-75 CNS, in the assay with SR leukemia and in the assay on SW-620 colon was more than 100 µM each time.

With `C[N+](C)(C)CC(=O)N/N=C(/Cc1cc(=O)oc2cc(O)ccc12)C(=O)Nc1ccc(Cl)cc1`, the TGI in the assay with A498 renal, in the assay with K-562 leukemia, in the assay with OVCAR-5 ovarian, with RPMI-8226 leukemia, in the assay on RXF 393 renal and in the assay with SF-295 CNS was more than 100 µM in each case. The TGI in the assay with SK-MEL-5 melanoma, with SR leukemia and in the assay on SW-620 colon was more than 100 µM in each case.

As to `C/C(=N\NC(N)=O)c1sc(-c2nc(C)c(/C(C)=N/NC(N)=O)s2)nc1C`, the TGI with A498 renal, with K-562 leukemia, with OVCAR-5 ovarian, with RPMI-8226 leukemia, in the assay on RXF 393 renal and in the assay on SF-295 CNS was more than 100 µM in each case. The TGI in the assay with SK-MEL-5 melanoma is more than 100 µM; in the assay with SNB-75 CNS, more than 100 µM; in the assay on SR leukemia, 43.5 µM.

For `CN(Cc1cnc2nc(N)nc(N)c2n1)c1ccc(C(=O)N[C@@H](CCS(=O)(=O)O)C(=O)O)cc1`, the TGI in the assay on A498 renal is more than 100 µM; in the assay with K-562 leukemia it was more than 100 µM; in the assay with RPMI-8226 leukemia it was more than 100 µM; in the assay on RXF 393 renal, 1.44 µM; in the assay with SF-295 CNS, more than 100 µM; in the assay on SK-MEL-5 melanoma, more than 100 µM. In addition, the TGI with SNB-75 CNS, in the assay with SR leukemia and in the assay on SW-620 colon was more than 100 µM throughout. The GI50 in the assay with SNB-75 CNS is 18.2 µM.

Consider `COc1nc(=O)n(C2C=CC(=O)O2)cc1F` (centres undefined), for which the GI50 in the assay with A498 renal was 16.2 µM; in the assay with OVCAR-5 ovarian, 15.2 µM; in the assay with RPMI-8226 leukemia it was 3.26 µM; in the assay on RXF 393 renal it was 1.94 µM; in the assay on SF-295 CNS it was 22.9 µM; in the assay with SK-MEL-5 melanoma it was 4.91 µM. For the same molecule, the GI50 is 14.3 µM with SNB-75 CNS, 1.87 µM with SR leukemia and 4.19 µM with SW-620 colon. Besides, the TGI in the assay with A498 renal was found to be 38.1 µM; in the assay on OVCAR-5 ovarian, 28.6 µM; in the assay on RPMI-8226 leukemia, 13.4 µM; in the assay with RXF 393 renal it was 5.03 µM; in the assay on SF-295 CNS, 66.1 µM; in the assay on SK-MEL-5 melanoma, 18.6 µM. For the same molecule, the TGI in the assay on SNB-75 CNS was found to be 43.1 µM; in the assay with SR leukemia it was 5.86 µM; in the assay on SW-620 colon, 15.8 µM.

As for `COc1ccc(-c2c(C#N)c(N3CCOCC3)nc3[nH]c(=S)[nH]c(=S)c23)cc1OC`, the GI50 in the assay on A498 renal is more than 100 µM; in the assay on K-562 leukemia, 36.7 µM; in the assay with OVCAR-5 ovarian, more than 100 µM; with RPMI-8226 leukemia, 9.74 µM; in the assay on RXF 393 renal it was 62.6 µM; with SF-295 CNS, 40.1 µM. For the same molecule, the GI50 was 27.5 µM in the assay with SK-MEL-5 melanoma, 11.5 µM with SR leukemia and 49.1 µM in the assay with SW-620 colon. Moreover, the TGI with A498 renal is more than 100 µM; in the assay with K-562 leukemia, more than 100 µM; with OVCAR-5 ovarian, more than 100 µM; in the assay with RPMI-8226 leukemia, 70.5 µM; with RXF 393 renal it was more than 100 µM; in the assay with SF-295 CNS it was more than 100 µM. The TGI in the assay on SK-MEL-5 melanoma, in the assay on SR leukemia and with SW-620 colon was more than 100 µM in each case.

Turning to `Oc1oc(C(=C2N=c3ccccc3=N2)c2ccc(Cl)cc2)c(O)c1-c1ccc(Cl)cc1`, the TGI in the assay on A498 renal was 9.06 µM; with K-562 leukemia, more than 100 µM; with OVCAR-5 ovarian, 6.89 µM; with RPMI-8226 leukemia it was 8.12 µM; with RXF 393 renal, 6.8 µM; in the assay on SF-295 CNS, 16.8 µM. Besides, the TGI with SNB-75 CNS was determined as 13 µM; in the assay on SR leukemia, 12.6 µM; in the assay on SW-620 colon, 68.3 µM.

As for `CC(C)C1CN(C(=O)OCc2ccccc2)C2N1C(=O)C2(C)OCc1ccccc1` (centres undefined), the TGI in the assay with A498 renal was 95.8 µM; in the assay on K-562 leukemia, more than 100 µM; with RPMI-8226 leukemia it was 66.6 µM; in the assay with RXF 393 renal it was more than 100 µM; in the assay on SF-295 CNS, more than 100 µM; in the assay on SK-MEL-5 melanoma, 29.5 µM. Also, the TGI in the assay with SNB-75 CNS was 59.5 µM; with SR leukemia, 98 µM; in the assay on SW-620 colon it was more than 100 µM.
